Experimental data as given in US10433551B2, “3-pyridyloxyphenyldihydrouracil compound and use thereof” (Sumitomo Chemical Company, Limited, priority 2016, dated 2019).

Tests used:
Assay type in all cases: cell-based
[1] = system: cucumber phytophthora blight fungi (Phytophthora capsici); test: Test for controlling cucumber phytophthora blight fungi, growth in titer plate (absorbance 600 nm); settings: Test Example 1; 4.5 mg in 100 μL DMSO, 1 μL in 150 μL PDB medium with zoospores; 27° C., three days
Protocol: (§1) In the test examples 1 to 4, a non-treated area means an area in which a test was conducted in the same manner as each test example, except that dimethyl sulfoxide was dispensed in place of the present compound diluted with dimethyl sulfoxide.
Four point five (4.5) milligrams of the present compound was diluted with 100 μL of dimethyl sulfoxide. One (1) μL portion of the diluted liquid was dispensed into a titer plate (96 wells), and thereto was then dispensed 150 μL of a potato dextrose broth medium (PDB medium) containing zoospores of cucumber phytophthora blight fungi (Phytophthora capsici). This plate was cultured at 27° C. for three days, thereby allowing the cucumber phytophthora blight fungi to undergo proliferation, and the absorbance at 600 nm of each well of the titer plate was then measured to determine a degree of growth of the cucumber phytophthora blight fungi. The efficacy was calculated from the determined degree of growth by the below-mentioned “Equation 1”. As a result, the efficacy of the Present compound was 90% or more. Efficacy=100×(X−Y)/X “Equation 1” where X: Degree of fungal growth in non-treated area Y: Degree of fungal growth in treated area

[2] = system: damping-off fungi (Pythium ultimum); test: Test for controlling damping-off fungi, growth in titer plate (absorbance 600 nm); settings: 1 μL in 150 μL Czapek medium with mycelial suspension, 23° C., five days
Protocol: as §1
(§2) Four point five (4.5) milligrams of the present compound was diluted with 100 μL of dimethyl sulfoxide. One (1) μL portion of the diluted liquid was dispensed into a titer plate (96 wells), and thereto was then dispensed 150 μL of a potato dextrose broth medium (PDB medium) containing zoospores of cucumber phytophthora blight fungi (Phytophthora capsici). This plate was cultured at 27° C. for three days, thereby allowing the cucumber phytophthora blight fungi to undergo proliferation, and the absorbance at 600 nm of each well of the titer plate was then measured to determine a degree of growth of the cucumber phytophthora blight fungi. The efficacy was calculated from the determined degree of growth by the below-mentioned “Equation 1”. […]
(§3) Four point five (4.5) milligrams of the present compound was diluted with 100 μL of dimethyl sulfoxide. […] This plate was cultured at 23° C. for five days, thereby allowing the damping-off fungi to undergo proliferation, and the absorbance at 600 nm of each well of the titer plate was then measured to determine a degree of growth of the damping-off fungi. […]

[3] = system: barley scald fungi (Rhynchosporium secalis); test: Test for controlling barley scald fungi, growth in titer plate (absorbance 600 nm); settings: Test Example 4; 4.5 mg in 100 μL DMSO, 1 μL in 150 μL PDB medium with spores; 18° C., seven days
Protocol: as §1, §2
as §3, with “at 18°” for “at 23°”, “for seven” for “for five”, “the barley scald” for “the damping-off”

Measured: efficacy

CCOC(=O)COc1ncccc1Oc1cc(N2C(=O)CC(O)(C(F)(F)F)NC2=O)c(F)cc1Cl (stereo not shown) [Present compound]
≥ 90%: [1] | [2]; Test Example 2, 4.5 mg in 100 μL DMSO | [2]; Test Example 3, 1.12 mg in 100 μL DMSO | [3]
